pIC50: −log10 of the molar value.
Molecular target: T1, PD-1/PD-L1 interaction (Homo sapiens, UniProt Q9NZQ7)
T1 construct: Tag1 (undisclosed kit tag); purchased CisBio 63ADK000CPAPEG
Test: PD-1/PD-L1 Homogenous Time-Resolved Fluorescence (HTRF) binding assay (CisBio kit)
Conditions: Biochemical PD1/PD-L1 inhibition
Protocol: PD-L1 Enzyme Assay: Homogenous Time-Resolved Fluorescence (HTRF) Binding Assay
All binding studies were performed using PD-1/PD-L1 Binding Assay Kit from CisBio (Catalog #63ADK000CPAPEG), according to the manufacturer's protocol. The interaction between Tag1-PD-1 and […] was detected by anti-Tag1-Eu^3+ (HTRF donor) and anti-Tag2-XL665 (HTRF acceptor). When the donor and acceptor antibodies were brought to close proximity due to PD-1 and PD-L1 binding, excitation of the donor antibody triggered fluorescent resonance energy transfer (FRET) towards the acceptor antibody, which in turn emitted specifically at 665 nm. This specific signal is positively proportional to PD-1/PD-L1 interaction. The compounds blocking PD-1/PD-L1 interaction will cause a reduction in HTRF signal. The necessary reagents were mixed in the following order: 2 μl compounds (or diluents buffer), 4 μl PD-L1 protein, 4 μl PD-1 protein. After an incubation of 15 minutes, 5 μl of anti-Tag1-Eu^3+ and 5 μl of anti-Tag2-XL665 were added. The plate was sealed and incubated at room temperature for 1 h. The fluorescence emission was read at two different wavelengths (665 nm and 620 nm) on a BMG PheraStar® multi-plate reader. Results were calculated from the 665 nm and 620 nm fluorescence signal and expressed in HTRF ratio=(665 nm/620 nm)×10^4.

T1 sequence (Q9NZQ7 19-238 limits assumed): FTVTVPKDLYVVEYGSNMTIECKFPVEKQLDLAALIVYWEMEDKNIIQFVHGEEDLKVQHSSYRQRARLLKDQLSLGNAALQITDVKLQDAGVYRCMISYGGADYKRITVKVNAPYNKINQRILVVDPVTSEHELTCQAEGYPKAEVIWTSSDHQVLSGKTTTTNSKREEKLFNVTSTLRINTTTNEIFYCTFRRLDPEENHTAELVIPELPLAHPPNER

| Structure (SMILES) | pIC50 |
| --- | --- |
| Cc1c(COc2cc(OCc3cncc(C#N)c3)c(CN3CCCC[C@H]3C(=O)O)c3c2CCC3)cccc1-c1ccccc1 [Compound 46, (S)-1-((5-((5-cyanopyridin-3-yl)methoxy)-7-((2-methyl-[1,1′-biphenyl]-3-yl)methoxy)-2,3-dihydro-1H-inden-4-yl)methyl)piperidine-2-carboxylic acid] | > 7.00 |
| Cc1c(COc2cc(OCc3cncc(C#N)c3)c(CN3C[C@H](O)C[C@H]3C(=O)O)c3c2CCC3)cccc1-c1ccccc1 [Compound 47, (2S,4R)-1-((5-((5-cyanopyridin-3-yl)methoxy)-7-((2-methyl-[1,1′-biphenyl]-3-yl)methoxy)-2,3-dihydro-1H-inden-4-yl)methyl)-4-hydroxypyrrolidine-2-carboxylic acid] | > 7.00 |
| CC(=O)NCCNCc1c(OCc2cncc(C#N)c2)cc(OCc2cccc(-c3ccccc3)c2C)c2c1CCC2 [Compound 48, N-(2-(((5-((5-cyanopyridin-3-yl)methoxy)-7-((2-methyl-[1,1′-biphenyl]-3-yl)methoxy)-2,3-dihydro-1H-inden-4-yl)methyl)amino)ethyl)acetamide] | > 7.00 |
| Cc1c(COc2cc(OCc3cncc(C#N)c3)c(CN3CCOC[C@H]3C(=O)O)c3c2CCC3)cccc1-c1ccccc1 [Compound 50, (S)-4-((5-((5-cyanopyridin-3-yl)methoxy)-7-((2-methyl-[1,1′-biphenyl]-3-yl)methoxy)-2,3-dihydro-1H-inden-4-yl)methyl)morpholine-3-carboxylicacid] | > 7.00 |
| Cc1c(COc2cc(OCc3cncc(C#N)c3)c(CN3CC4(CC4)C[C@H]3C(=O)O)c3c2CCC3)cccc1-c1ccccc1 [Compound 52, (S)-5-((5-((5-cyanopyridin-3-yl)methoxy)-7-((2-methyl-[1,1′-biphenyl]-3-yl)methoxy)-2,3-dihydro-1H-inden-4-yl)methyl)-5-azaspiro[2.4]heptane-6-carboxylic acid] | > 7.00 |
| CC(=O)NCCN(C)Cc1c(OCc2cccc(C#N)c2)cc(OCc2cccc(-c3ccccc3)c2C)c2c1CCC2 [Compound 53, N-(2-(((5-((3-cyanobenzyl)oxy)-7-((2-methyl-[1,1′-biphenyl]-3-yl)methoxy)-2,3-dihydro-1H-inden-4-yl)methyl)(methyl)amino)ethyl)acetamide] | > 7.00 |
| CC(=O)NCCNCc1c(OCc2ccc(C#N)cc2)cc(OCc2cccc(-c3ccccc3)c2C)c2c1CCC2 [Compound 54, N-(2-(((5-((4-cyanobenzyl)oxy)-7-((2-methyl-[1,1′-biphenyl]-3-yl)methoxy)-2,3-dihydro-1H-inden-4-yl)methyl)amino)ethyl)acetamide] | 6.30 to 7.00 |
| COc1cc(OCc2cccc(-c3ccccc3)c2C#N)c2c(c1CN1CC3(CC3)C[C@H]1C(=O)O)CCC2 [Compound 61, (S)-5-((7-((2-cyano-[1,1′-biphenyl]-3-yl)methoxy)-5-methoxy-2,3-dihydro-1H-inden-4-yl)methyl)-5-azaspiro[2.4]heptane-6-carboxylic acid] | > 7.00 |
| CC(=O)NCCNCc1c(OCCCCC(=O)O)cc(OCc2cccc(-c3ccccc3)c2C)c2c1CCC2 [Compound 65, 5-((4-(((2-acetamidoethyl)amino)methyl)-7-((2-methyl-[1,1′-biphenyl]-3-yl)methoxy)-2,3-dihydro-1H-inden-5-yl)oxy)pentanoic acid] | > 7.00 |
| CC(=O)NCCNCc1c(OCCCCC(N)=O)cc(OCc2cccc(-c3ccccc3)c2C)c2c1CCC2 [Compound 66, 5-((4-(((2-acetamidoethyl)amino)methyl)-7-((2-methyl-[1,1′-biphenyl]-3-yl)methoxy)-2,3-dihydro-1H-inden-5-yl)oxy)pentanamide] | 6.30 to 7.00 |
| Cc1c(COc2cc(OCCCCC(=O)O)c(CN3CCCC[C@H]3C(=O)O)c3c2CCC3)cccc1-c1ccccc1 [Compound 67, (S)-1-((5-(4-carboxybutoxy)-7-((2-methyl-[1,1′-biphenyl]-3-yl)methoxy)-2,3-dihydro-1H-inden-4-yl)methyl)piperidine-2-carboxylic acid] | > 7.00 |
| Cc1c(COc2cc(OCCCCC(N)=O)c(CN3CCCC[C@H]3C(=O)O)c3c2CCC3)cccc1-c1ccccc1 [Compound 68, (S)-1-((5-((5-amino-5-oxopentyl)oxy)-7-((2-methyl-[1,1′-biphenyl]-3-yl)methoxy)-2,3-dihydro-1H-inden-4-yl)methyl)piperidine-2-carboxylic acid] | > 7.00 |

Next, values leading:

| pIC50 | Structure (SMILES) |
| --- | --- |
| > 7.00 | Cc1c(COc2cc(OCc3cncc(C#N)c3)c(CNC(CO)(CO)CO)c3c2CCC3)cccc1-c1ccccc1 [Compound 49, 5-(((4-(((1,3-dihydroxy-2-(hydroxymethyl)propan-2-yl)amino)methyl)-7-((2-methyl-[1,1′-biphenyl]-3-yl)methoxy)-2,3-dihydro-1H-inden-5-yl)oxy)methyl)nicotinonitrile] |
| > 7.00 | COc1cc(OCc2cccc(-c3ccccc3)c2C#N)c2c(c1CN1CCCC[C@H]1C(=O)O)CCC2 [Compound 55, (S)-1-((7-((2-cyano-[1,1′-biphenyl]-3-yl)methoxy)-5-methoxy-2,3-dihydro-1H-inden-4-yl)methyl)piperidine-2-carboxylic acid] |
| > 7.00 | COc1cc(OCc2cccc(-c3ccccc3)c2C#N)c2c(c1CNCCNC(C)=O)CCC2 [Compound 56, N-(2-(((7-((2-cyano-[1,1′-biphenyl]-3-yl)methoxy)-5-methoxy-2,3-dihydro-1H-inden-4-yl)methyl)amino)ethyl)acetamide] |
| > 7.00 | COc1cc(OCc2cccc(-c3ccccc3)c2C#N)c2c(c1CN1C[C@H](O)C[C@H]1C(=O)O)CCC2 [Compound 57, (2S,4R)-1-((7-((2-cyano-[1,1′-biphenyl]-3-yl)methoxy)-5-methoxy-2,3-dihydro-1H-inden-4-yl)methyl)-4-hydroxypyrrolidine-2-carboxylic acid] |
| > 7.00 | COc1cc(OCc2cccc(-c3ccccc3)c2C#N)c2c(c1CNC(CO)(CO)CO)CCC2 [Compound 58, 3-(((7-(((1,3-dihydroxy-2-(hydroxymethyl)propan-2-yl)amino)methyl)-6-methoxy-2,3-dihydro-1H-inden-4-yl)oxy)methyl)-[1,1′-biphenyl]-2-carbonitrile] |
| > 7.00 | COc1cc(OCc2cccc(-c3ccccc3)c2C#N)c2c(c1CN1CCOC[C@H]1C(=O)O)CCC2 [Compound 59, (S)-4-((7-((2-cyano-[1,1′-biphenyl]-3-yl)methoxy)-5-methoxy-2,3-dihydro-1H-inden-4-yl)methyl)morpholine-3-carboxylic acid] |
| > 7.00 | COc1cc(OCc2cccc(-c3ccccc3)c2C#N)c2c(c1CNCC(=O)O)CCC2 [Compound 60, ((7-((2-cyano-[1,1′-biphenyl]-3-yl)methoxy)-5-methoxy-2,3-dihydro-1H-inden-4-yl)methyl)glycine] |
| 6.30 to 7.00 | COc1cc(OCc2cccc(-c3ccccc3)c2C#N)c2c(c1CN1CCCCC1CC(=O)O)CCC2 (stereo not drawn) [Compound 63, 2-(1-((7-((2-cyano-[1,1′-biphenyl]-3-yl)methoxy)-5-methoxy-2,3-dihydro-1H-inden-4-yl)methyl)piperidin-2-yl)acetic acid] |
| 6.30 to 7.00 | COc1cc(OCc2cccc(-c3ccccc3)c2C#N)c2c(c1CN(C)CCN(C)C(C)=O)CCC2 [Compound 64, N-(2-(((7-((2-cyano-[1,1′-biphenyl]-3-yl)methoxy)-5-methoxy-2,3-dihydro-1H-inden-4-yl)methyl)(methyl)amino)ethyl)-N-methylacetamide] |

Source: patent US11529341B2, “Bicyclic compounds as inhibitors of PD1/PD-L1 interaction/activation” (JUBILANT PRODEL LLC, priority 2018, dated 2022)
